Experimental data reported in patent US20240023534A1, “Devices, Compositions and Methods for Insect Control” (Agriculture Victoria Services PTY LTD, priority 2020, published 2024).
“Also recorded” adds a separate entry of the source.

How the values were obtained:
C. davidsoni [1] = test: GC-EAD of beetle antennae to Pichia kluyveri headspace volatiles; conditions: female and male adults, P. kluyveri headspace volatiles
Source text: FIG. 6. GC-EAD responses of female (♀) and male (♂) C. davidsoni adults to headspace volatiles (black, FID chromatogram) of the fruit yeast Pichia kluyveri. […] IS=Internal standard, IS1=n-octane, IS2=Nonyl acetate.

[2] = Gravimetric release rate and longevity of lure constituents in LDPE sachets; assay type: physicochemical; conditions: for Est. long. / Release rate: compound on wick in LDPE sachet, thickness, size, load per Table 1
Procedure: The release rates of co-attractant components formulated in low density polyethylene (LDPE) sachets were investigated (FIG. 1).
The release rate and theoretical longevity of the lure constituents in sachets were tested in gravimetric experiments. Data were used to determine the optimal sachet thickness, size (surface area) and estimated longevity of individual components (FIG. 2).
A fixed volume (1 ml) of each lure constituent was individually loaded in 50 cm 2 of different thicknesses (50, 100, 150 and 200 μm). Sachets were weighed daily for the first 5 days and later at greater time intervals. Release rates of the compounds through different sachet thicknesses were inferred using sachet weight loss over time (FIG. 2). Only the linear part of the weight loss curve was considered in the calculations of release rates. The maximum estimated longevity was deduced from the calculated release rate and corrected based on adjusted sachet size and volume of chemical loaded.

[3] = Release of compounds from the commercial co-attractant solution; assay type: physicochemical; conditions: for Release rate (commercial solution): compound in commercial co-attractant solution; for duration of release in the current solution: current co-attractant solution
[4] = Sachet size, thickness, release rate and lure longevity studies (Table 3, based on GC-MS analysis); assay type: physicochemical; conditions: for Est. long. / Release rate: LDPE sachet per Table 3, based on GC-MS analysis
Procedure: Studies determining optimal sachet size and thickness, lure concentration, release rates and lure longevity were performed as described in Table 3.

Carpophilus truncatus = test: Cage dual-choice bioassay, co-attractant with one ingredient suppressed; assay type: in vivo; conditions: for attractiveness of commercial co-attractant in the absence of the compound / role of the compound: test solution lacking one ingredient vs CL in 45% ethanol, fifty beetles
Procedure: FIG. 9. Boxplots representing the results of lab-conducted cage dual-choice assays on Carpophilus truncatus responses to odours. Between 50 and 100 beetles were simultaneously exposed to a solution of co-attractant […] one ingredient at a time was suppressed (treatments). The attraction index was calculated as follows: (number of beetles in test solution−number of beetles in control)/(total number of beetles). […] Line in the boxplots correspond to the median, top and bottom of the boxplots represent the 75th and 25th percentiles respectively while error bars depict the 5th and 95th percentiles. White dots are outliers. n correspond to the replication of each experiments. p values result from paired t-tests and stars indicate the level of statistical significance.
Fifty beetles were simultaneously exposed to a solution of co-attractant (control) and a solution of co-attractant from which one additive at a time was suppressed (treatments, see table 4). The attraction index was calculated as follows: (number of beetles in test solution—number of beetles in control)/(total number of beetles).

C. davidsoni [5] = test: Field trial of synthetic blends in peach orchard (Example 6); assay type: in vivo; conditions: CL+2PA, CL+IA, CL+IA+2PA vs CL; five weeks, N=6
Source text: C. davidsoni catches using prototype co-attractant solutions in a stone fruit orchard (Shepparton, VIC). CL corresponds to the control (original Carpophilus Lure co-attractant), CL+IA (co-attractant+Isopentyl Acetate), CL+PA (co-attractant+2-Phenethyl acetate) and CL+IA+PA (co-attractant+Isopentyl Acetate+2-Phenethyl acetate). […] Number of replicates per treatment N=6.
Synthetic blends consisting of the combination of the existing carpophilus lure with two new potential yeast attractants; namely Isopentyl acetate and 2-phenylethyl acetate; were formulated based on their respective ratio to ethyl acetate (Table 2) and tested in the field.
Field trials were conducted in a peach orchard in Invergordon (Victoria). Treatments included the original carpophilus lure (CL: control), the original lure combined with Isopentyl acetate (CL+IA) or with 2-phenylethylacetate (CL+2PA) or both (CL+IA+2PA). Six replicates of each odour blend were placed in black funnel traps held on pickets at 1.5 m height, arranged in randomized transects. Beetles were collected and synthetic blends replaced weekly over a 5-week period.
These compounds were tested either separately or together in the existing Carpophilus co-attractant and compared with the original co-attractant in the field. The trial was conducted over a five week period during which the beetles were collected and the lure solutions renewed weekly.

C. truncatus = test: GC-EAD responses to W. rabaulensis odour; conditions: W. rabaulensis headspace odour
Procedure: FIG. 10. […] 1-Acetaldehyde. 2-Ethanol. 3-Isobutanol. 4-Isopentyl alcohol. 5-2-Methyl butanol. 6-Isobutyl acetate. 7-Isopentyl acetate.
As co-attractants are derived from microbial odours, beetle attraction towards yeast odours isolated from the insect's gut was tested (Farrukh Baig, PhD thesis, 2020). […] Synthetic blends of the yeast odours were developed and field tested.

CC(=O)OCc1ccco1 [2-furanmethanol acetate]
GC-EAD antennal response (C. davidsoni [1]): consistent physiological responses

CCC(C)CO (stereo not shown) [2-methyl-butanol]
Est. long. [2]: 200+ days | Release rate [2]: 4.3 mg/day | Release rate (commercial solution) [3]: 0.6 mg/day | Est. long. [4]: 200+ days | Release rate [4]: 4.3 mg/day | GC-EAD antennal response (C. davidsoni [1]): consistent physiological responses | attractiveness of commercial co-attractant in the absence of the compound / role of the compound (Carpophilus truncatus): significantly more attractive

CC(=O)OCCc1ccccc1 [2-phenylethylacetate]
Est. long. [4]: 70+ days | Release rate [4]: 28 mg/day | longevity in sachets ([4]; dispensed in sachets): over 70 days | GC-EAD antennal response (C. davidsoni [1]): consistent physiological responses | GC-EAD antennal response (C. davidsoni [1]; listed as 2-phenethyl acetate): strong sensitivity | effect on beetle capture of adding the compound to the original co-attractant (CL) (C. davidsoni [5]): significantly more beetles

CCC(=O)OCCc1ccccc1 [2-phenylethylpropionate]
GC-EAD antennal response (C. davidsoni [1]): consistent physiological responses

CCCCOC(C)=O [Butyl acetate]
GC-EAD antennal response (C. davidsoni [1]): consistent physiological responses

CCCCCCCC(=O)OCC [Ethyl octanoate]
GC-EAD antennal response (C. davidsoni [1]): consistent physiological responses

CC(=O)OCC(C)C [Isobutyl acetate]
GC-EAD antennal response (C. davidsoni [1]): consistent physiological responses | antennal responses (GC-EAD) (C. truncatus): strong antennal responses

CC(C)CO [Isobutyl alcohol]
Est. long. [2]: 200+ days | Release rate [2]: 4.9 mg/day | Release rate (commercial solution) [3]: 2.9 mg/day | Est. long. [4]: 200+ days | Release rate [4]: 4.9 mg/day | GC-EAD antennal response (C. davidsoni [1]): consistent physiological responses | attractiveness of commercial co-attractant in the absence of the compound / role of the compound (Carpophilus truncatus): seem to not influence

CC(=O)OCCC(C)C [Isopentyl acetate]
GC-EAD antennal response (C. davidsoni [1]): consistent physiological responses; also recorded: strong sensitivity | effect on beetle capture of adding the compound to the original co-attractant (CL) (C. davidsoni [5]): reduce lure attractiveness | antennal responses (GC-EAD) (C. truncatus): strong antennal responses

CC(C)CCO [Isopentyl alcohol]
Est. long. [2]: 300 days | Release rate [2]: 3.4 mg/day | Release rate (commercial solution) [3]: 3.3 mg/day | Est. long. [4]: 300 days | Release rate [4]: 3.4 mg/day | GC-EAD antennal response (C. davidsoni [1]): consistent physiological responses | effect of increased concentrations on lure efficacy (Carpophilus truncatus; further cage bioassay experiments): increase in lure efficacy | attractiveness of commercial co-attractant in the absence of the compound / role of the compound (Carpophilus truncatus): significantly less attractive

CC(=O)OCc1ccccc1 [Phenylmethyl acetate]
GC-EAD antennal response (C. davidsoni [1]): consistent physiological responses

CCCOC(C)=O [Propyl acetate]
GC-EAD antennal response (C. davidsoni [1]): consistent physiological responses

CC=O [acetaldehyde]
duration of release when applied in sachets ([2]; LDPE sachets): 1 week | Est. long. [2]: 7 days | Release rate [2]: 50 mg/day | Release rate (commercial solution) [3]: 43 mg/day | duration of release in the current solution [3]: 1 days | Est. long. [4]: 40 days | Release rate [4]: 50 mg/day | attractiveness of commercial co-attractant in the absence of the compound / role of the compound (Carpophilus truncatus): tend to act as an attractant

CCO [ethanol]
permeation through the LDPE layers ([2]; LDPE sachets): limited permeation | maximum release rate achievable with thin sachets ([2]; thin LDPE sachets, lab experiments): ~25 mg/day | ethanol emission rates in the commercial lure ([3]; commercial lure): 2.5 g/day | attractiveness of commercial co-attractant in the absence of the compound / role of the compound (Carpophilus truncatus): significantly less attractive

CCOC(C)=O [ethyl acetate]
duration of release when applied in sachets ([2]; LDPE sachets): 1 week | Est. long. [2]: 15 days | Release rate [2]: 136 mg/day | Release rate (commercial solution) [3]: 110 mg/day | duration of release in the current solution [3]: 1 days | Est. long. [4]: 15 days | Release rate [4]: 136 mg/day | GC-EAD antennal response (C. davidsoni [1]): consistent physiological responses | attractiveness of commercial co-attractant in the absence of the compound / role of the compound (Carpophilus truncatus): seem to not influence

CCC1CCC(=O)O1 (stereo not shown) [γ-caprolactone]
GC-EAD antennal response (C. davidsoni [1]): consistent physiological responses
